Test results published in US9873683B2, “P2X4 receptor antagonist” (NIPPON CHEMIPHAR CO., LTD., priority 2013, dated 2018).
Values joined by “and” are separate entries in the source; they are usually repeats but may differ in a detail not shown here. Equal entries are not always repeated. Structures can show the parent of a compound that is named as a salt.

What follows are compounds tested against human P2X4 receptor (Homo sapiens (Human), UniProt Q99571) (assay: P2X4 receptor antagonist activity (ATP-induced intracellular calcium, Fura-2 AM)). Details: 1321N1 cells stably expressing human P2X4 receptor; test substance 15 minutes before addition of ATP; Fura-2 AM F340/F380; read-out: Inhibitory activity IC50.
Sequence of human P2X4 receptor (Q99571 whole entry): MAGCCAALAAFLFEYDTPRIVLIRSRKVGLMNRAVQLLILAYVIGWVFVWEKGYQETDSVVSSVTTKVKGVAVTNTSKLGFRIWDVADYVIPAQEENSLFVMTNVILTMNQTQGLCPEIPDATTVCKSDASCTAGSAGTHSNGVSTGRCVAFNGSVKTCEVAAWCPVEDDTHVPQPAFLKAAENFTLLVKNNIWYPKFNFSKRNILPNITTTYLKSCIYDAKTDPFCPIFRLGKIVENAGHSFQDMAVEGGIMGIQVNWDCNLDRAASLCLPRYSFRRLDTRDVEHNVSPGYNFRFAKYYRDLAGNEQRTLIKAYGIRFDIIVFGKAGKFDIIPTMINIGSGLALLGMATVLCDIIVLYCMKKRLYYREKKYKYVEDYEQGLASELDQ
Type: cell-based
Method: The ATP receptor (human P2X4) was introduced into the 1321N1 cells, and the cells were used as a stable ATP receptor expression system. The P2X4-expressing 1321N1 cells were seeded on a 96-well plate, cultured under the conditions of 37° C. and 5% CO2 for 24 hours, and used for calcium measurement. […] For the measurement, a microplate reader, Fluostar Optima (BMG Labtech), was used. The light emitted from a xenon lamp was passed through 340 nm and 380 nm filters, respectively, and irradiated on the cells, fluorescences of 510 nm, F340 and F380, emitted from the cells were measured, and change of the ratio F340/F380 was used as an index of change of intracellular calcium level. The measurement was performed by adding ATP to each well at a final concentration of 1 μM, and observing the ATP-induced Ca^2+ response over time.
The 1321N1 cells stably expressing human P2X4 receptor were seeded on a 96-well plate, cultured under the conditions of 37° C. and 5% CO2 for 24 hours, and then used for intracellular calcium measurement. Fura-2 AM, which is a calcium fluorescent indicator, was used for the intracellular calcium measurement. […] The ratio of fluorescence values obtained with excitation lights of 340 nm and 380 nm was used as an index of the change of intracellular calcium level, and the inhibitory activity of the test substance was calculated on the basis of the comparison with the value obtained in the absence of the test substance (control).
For COc1c(F)cccc1CCc1nccn1-c1ccc(N2C(=O)CC(=O)Nc3c2ccc2ccccc32)cc1 [Example 83, 5-[4-[(2-(3-Fluoro-2-methoxyphenyl)ethyl)-1H-imidazol-1-yl]phenyl]-1H-naphtho[1,2-b][1,4]diazepine-2,4(3H,5H)-dione hydrochloride], the IC50 was 0.087 µM. With COc1ccccc1Cc1nnnn1-c1ccc(C2=NCC(=O)Nc3c2ccc2ccccc32)cc1 [Example 19, 5-[4-[5-(2-Methoxybenzyl)-1H-tetrazol-1-yl]phenyl]-1H-naphtho[1,2-e][1,4]diazepin-2(3H)-one] the IC50 was 0.32 µM. Work on CN(C)c1ccccc1Cc1nnnn1-c1ccc(N2C(=O)CC(=O)Nc3c2ccc2ccccc32)cc1 [Example 47, 5-[4-[5-[2-(Dimethylamino)benzyl]-1H-tetrazol-1-yl]phenyl]-1H-naphtho[1,2-b][1,4]diazepine-2,4(3H,5H)-dione mesylate] yielded an IC50 of 0.094 µM. For O=C1CC(=O)N(c2ccc(-n3ccnc3CCc3ccsc3)cc2)c2ccc3ccccc3c2N1 [Example 62, 5-[4-[2-[2-(Thiophen-3-yl)ethyl]-1H-imidazol-1-yl]phenyl]-1H-naphtho[1,2-b][1,4]diazepine-2,4(3H,5H)-dione hydrochloride], the IC50 was 0.088 µM. Compound O=C1CC(=O)N(c2ccc(-n3nnnc3Cc3ccccc3O)nc2)c2ccc3ccccc3c2N1 [Example 11] has an IC50 of 0.077 µM. In the case of O=C1CC(=O)N(c2ccc(-n3ccnc3CNc3ccccc3)cc2)c2ccc3ccccc3c2N1 [Example 80, 5-[4-[2-[(Phenylamino)methyl]-1H-imidazol-1-yl]phenyl]-1H-naphtho[1,2-b][1,4]diazepine-2,4(3H,5H)-dione], the IC50 is reported as 1.3 µM. Compound NC(=O)c1cccc(CCc2nccn2-c2ccc(N3C(=O)CC(=O)Nc4c3ccc3ccccc43)cc2)c1 [Example 57, 3-[2-[1-[4-(2,4-Dioxo-3,4-dihydro-1H-naphtho[1,2-b][1,4]diazepin-5(2H)-yl)phenyl]-1H-imidazol-2-yl]ethyl]benzamide] has an IC50 of 0.13 µM. For O=C1CC(=O)N(c2ccc(-c3nccn3CCc3cccc(O)c3)cc2)c2ccc3ccccc3c2N1 [Example 27, 5-[4-[1-(3-Hydroxyphenethyl)-1H-imidazol-2-yl]phenyl]-1H-naphtho[1,2-b][1,4]diazepine-2,4(3H,5H)-dione], the IC50 was 0.078 µM. O=C1CC(=O)N(c2ccc(-n3nnnc3CCc3cccnc3)cc2)c2ccc3ccccc3c2N1 [Example 3, 5-[4-[5-[2-(Pyridin-3-yl)ethyl]-1H-tetrazol-1-yl]phenyl]-1H-naphtho[1,2-b][1,4]diazepine-2,4(3H,5H)-dione hydrochloride] gave an IC50 of 0.38 µM. In the case of O=C1CC(=O)N(c2ccc(-c3nccn3CCc3ccccc3)cc2)c2ccc3ccccc3c2N1 [Example 22, 5-[4-(1-Phenethyl-1H-imidazol-2-yl)phenyl]-1H-naphtho[1,2-b][1,4]diazepine-2,4(3H,5H)-dione hydrochloride], the IC50 is reported as 0.091 µM. For O=C1CC(=O)N(c2ccc(-n3ccnc3CCc3cccc(C(F)(F)F)c3)cc2)c2ccc3ccccc3c2N1 [Example 38, 5-[4-[2-[3-(Trifluoromethyl)phenylethyl]-1H-imidazol-1-yl]phenyl]-1H-naphtho[1,2-b][1,4]diazepine-2,4(3H,5H)-dione hydrochloride], the IC50 was 0.55 µM. In the case of O=C1CC(=O)N(c2ccc(-n3nnnc3CCc3ccccc3)cc2)c2ccc3ccccc3c2N1 [Example 4, 5-[4-(5-Phenethyl-1H-tetrazol-1-yl)phenyl]-1H-naphtho[1,2-b][1,4]diazepine-2,4(3H,5H)-dione], the IC50 is reported as 0.044 µM. For O=C1CC(=O)N(c2ccc(-n3ccnc3COc3ccccc3)cc2)c2ccc3ccccc3c2N1 [Example 68, 5-[4-[2-(Phenoxymethyl)-1H-imidazol-1-yl]phenyl]-1H-naphtho[1,2-b][1,4]diazepine-2,4(3H,5H)-dione], the IC50 was 0.79 µM. Work on N#Cc1ccccc1CCc1nccn1-c1ccc(N2C(=O)CC(=O)Nc3c2ccc2ccccc32)cc1 [Example 54, 2-[2-[1-[4-(2,4-Dioxo-3,4-dihydro-1H-naphtho[1,2-b][1,4]diazepin-5(2H)-yl)phenyl]-1H-imidazol-2-yl]ethyl]benzonitrile] yielded an IC50 of 0.19 µM. In the case of COc1cc(N2C(=O)CC(=O)Nc3c2ccc2ccccc32)ccc1-c1nccn1CCc1ccccc1 [Example 64, 5-[3-Methoxy-4-(1-phenethyl-1H-imidazol-2-yl)-phenyl]-1H-naphtho[1,2-b][1,4]diazepine-2,4(3H,5H)-dione], the IC50 is reported as 0.52 µM. Compound COc1cccc(CCn2ccnc2-c2ccc(N3C(=O)CC(=O)Nc4c3ccc3ccccc43)cc2)c1 [Example 25, 5-[4 [1-(3-Methoxyphenethyl)-1H-imidazol-2-yl]phenyl]-1H-naphtho[1,2-b][1,4]diazepine-2,4(3H,5H)-dione] has an IC50 of 0.082 µM. O=C1CN=C(c2ccc(-n3ccnc3CCc3ccccc3)cc2)c2ccc3ccccc3c2N1 [Example 41, 5-[4-(2-Phenethyl-1H-imidazol-1-yl)phenyl]-1H-naphtho[1,2-e][1,4]diazepin-2(3H)-one dihydrochloride] showed an IC50 of 0.65 µM. Work on NC(=O)c1ccccc1Cn1ccnc1-c1ccc(N2C(=O)CC(=O)Nc3c2ccc2ccccc32)cc1 [Example 53, 2-[[2-[4-(2,4-Dioxo-3,4-dihydro-1H-naphtho[1,2-b][1,4]diazepin-5(2H)-yl)phenyl]-1H-imidazol-1-yl]methyl]benzamide] yielded an IC50 of 0.59 µM. COc1cccc(CCc2nccn2-c2ccc(N3C(=O)CC(=O)Nc4c3ccc3c4CCC3)cc2)c1 [Example 61, 5-[4-[2-(3-Methoxyphenethyl)-1H-imidazol-1-yl]phenyl]-5,8,9,10-tetrahydroindeno[4,5-b][1,4]diazepine-2,4(1H,3H)-dione hydrochloride] showed an IC50 of 0.074 µM. O=C1CC(=O)N(c2ccc(-n3ccnc3CCc3cccc(F)c3)cc2)c2ccc3ccccc3c2N1 [Example 31, 5-[4-[(2-(3-Fluorophenyl)ethyl)-1H-imidazol-1-yl]phenyl]-1H-naphtho[1,2-b][1,4]diazepine-2,4(3H,5H)-dione hydrochloride] showed an IC50 of 0.051 µM. In the case of O=C1CC(=O)N(c2ccc(-n3ccnc3CCc3cccc(O)c3)cc2)c2ccc3ccccc3c2N1 [Example 43, 5-[4-[2-(3-Hydroxyphenethyl)-1H-imidazol-1-yl]phenyl]-1H-naphtho[1,2-b][1,4]diazepine-2,4(3H,5H)-dione hydrochloride], the IC50 is reported as 0.053 µM and 0.19 µM. In the case of COc1ccccc1-c1nccn1-c1ccc(N2C(=O)CC(=O)Nc3c2ccc2ccccc32)cc1 [Example 51, 5-[4-[2-(2-Methoxyphenyl)-1H-imidazol-1-yl]phenyl]-1H-naphtho[1,2-b][1,4]diazepine-2,4(3H,5H)-dione], the IC50 is reported as 1.7 µM. Work on O=C1CC(=O)N(c2ccc(-n3ccnc3-c3ccccc3)cc2)c2ccc3ccccc3c2N1 [Example 50, 5-[4-(2-Phenyl-1H-imidazol-1-yl)phenyl]-1H-naphtho[1,2-b][1,4]diazepine-2,4(3H,5H)-dione] yielded an IC50 of 3.7 µM. For O=C1CC(=O)N(c2ccc(-c3nc[nH]c3-c3ccccc3)cc2)c2ccc3ccccc3c2N1 [Example 72, 5-[4-(5-Phenyl-1H-imidazol-4-yl)phenyl]-1H-naphtho[1,2-b][1,4]diazepine-2,4(3H,5H)-dione hydrochloride], the IC50 was 3.4 µM. Compound “5-[4-[(5-Phenylethyl)-1H-imidazol-4-yl]phenyl]-1H-naphtho[1,2-b][1,4]diazepine-2,4(3H,5H)-dione hydrochloride [Example 73]” has an IC50 of 0.32 µM. O=C1CC(=O)N(c2ccc(-n3ccnc3CCc3cccc(F)c3)cc2)c2ccc3c(c2N1)CCC3 [Example 79, 5-[4-[2-(3-Fluorophenethyl)-1H-imidazol-1-yl]phenyl]-5,8,9,10-tetrahydroindeno[4,5-b][1,4]diazepine-2,4(1H,3H)-dione hydrochloride] gave an IC50 of 0.039 µM. In the case of O=C1CC(=O)N(c2ccc(-n3nnnc3Cc3ccccc3O)cc2)c2ccc3ccccc3c2N1 [Example 2, 5-[4-[5-(2-Hydroxybenzyl)-1H-tetrazol-1-yl]phenyl]-1H-naphtho[1,2-b][1,4]diazepine-2,4(3H,5H)-dione], the IC50 is reported as 0.037 µM. With COc1ccccc1CCc1nccn1-c1ccc(N2C(=O)CC(=O)Nc3c2ccc2ccccc32)cc1 [Example 32, 5-[4-[(2-(2-Methoxyphenyl)ethyl)-1H-imidazol-1-yl]phenyl]-1H-naphtho[1,2-b][1,4]diazepine-2,4(3H,5H)-dione hydrochloride] the IC50 was 0.18 µM. For NC(=O)c1ccccc1CCc1nccn1-c1ccc(N2C(=O)CC(=O)Nc3c2ccc2ccccc32)cc1 [Example 55, 2-[2-[1-[4-(2,4-Dioxo-3,4-dihydro-1H-naphtho[1,2-b][1,4]diazepin-5(2H)-yl)phenyl]-1H-imidazol-2-yl]ethyl]benzamide], the IC50 was 0.34 µM. In the case of CC1(C)CN(c2ccc(N3C(=O)CC(=O)Nc4c3ccc3ccccc43)cc2)C(CCc2ccccc2)=N1 [Example 74, 5-[4-(4,4-Dimethyl-2-phenethyl-4,5-dihydro 1H-imidazol-1-yl)phenyl]-1H-naphtho[1,2-b][1,4]diazepine-2,4(3H,5H)-dione hydrochloride], the IC50 is reported as 2.5 µM. In the case of O=C1CC(=O)N(c2ccc(-n3ccnc3CCc3ccccn3)cc2)c2ccc3ccccc3c2N1 [Example 71, 5-[4-[[2-(Pyridin-2-yl)ethyl]-1H-imidazol-1-yl]phenyl]-1H-naphtho[1,2-b][1,4]diazepine-2,4(3H,5H)-dione dihydrochloride], the IC50 is reported as 0.59 µM.
